Experimental data taken from paper PMC5838563, “Compounds producing an effective combinatorial regimen for disruption of HIV‐1 latency” (EMBO Molecular Medicine, 2017).

Assays:
[1] = test system: IL‐2 production and CD69 in primary cells; design: method as in previous results (reference not given); conditions: 10 nM PEP005, primary cells; ref previous results (reference not given); cited from earlier work
[2] = test system: HIV‐1 LTR (Jurkat^Tat LTR‐DsRed clone #11); experiment: mdHIV LTR‐DsRed reporter assay, clone #11; format: cell-based
Excerpt: HIV‐1 tends to integrate into actively transcribed regions of the host genome (Jordan et al, 2003; Lewinski et al, 2006; Ikeda et al, 2007). Each HIV‐1‐infected patient carries viral DNA integrated at different chromosomal locations, and as we have previously shown, the site of viral integration influences how latently infected T cells respond to different stimuli (Hashemi et al, 2016). Therefore, an ideal LRA should be capable of disrupting latency in cell models carrying integrated viral reporters at multiple different regions within the host genome. To assess this capability for the PH compounds, we used two additional previously described cell lines, designated Jurkat^Tat LTR‐DsRed clones #11, and #131, that carry a mini‐dual fluorescent HIV‐1 LTR reporter (mdHIV) at different chromosomal locations. The minivirus mdHIV has two fluorescent reporters in which DsRed expression is driven from the 5′ LTR, and eGFP is constitutively expressed from an internal EIF‐1α promoter (Fig 5A). […]
Figure 5 Effect of PH02 on HIV provirus integrated at different chromosomal locations • A The effect of PH compounds was analyzed using clonal lines bearing single‐copy integrations of the mini‐dual fluorescent HIV‐1 LTR reporter, md‐HIV, where GFP is constitutively expressed from the EIF‐1α internal promoter, and DsRed from the 5′ LTR. • B Fluorescence‐activated cell sorting (FACS) of cells bearing md‐HIV provirus indicates expression of EIF‐1α‐GFP and LTR‐dsRed. Stimulation of the md‐HIV lines generally causes a shift of the fluorescence profile from GFP^+/DsRed^− toward GFP^+/DsRed^+. • C, D Clone 11 or clone 131 was treated with the indicated concentrations of PH02 (left panels) or PH02 in combination with 10 nM PEP005 (right panels) for 24 h and cells analyzed by flow cytometry. Results presented as Δmean fluorescence intensity (ΔMFI) of DsRed expression and fold increase in DsRed expression for solo and combination treatments, respectively. Mean and SE are determined from three biological replicates (n = 3) and technical duplicates. […]

C/C=C(/C)C(=O)O[C@H]1C(C)=C[C@]23C(=O)[C@@H](C=C(CO)[C@@H](O)[C@]12O)[C@H]1[C@@H](C[C@H]3C)C1(C)C [PEP005, ingenol‐3‐angelate, reference compound]
CD69 [1]: does induce upregulation of CD69
IL‐2 production [1]: does not cause

CC(=O)Oc1ccccc1N(C=C1Sc2ccccc2C1=O)C(C)=O [PH02, 2‐{acetyl[(3‐oxo‐1‐benzothien‐2(3H)‐ylidene)methyl]amino}phenyl acetate]
concentration reactivating viral transcription (LTR‐DsRed, ∆MFI) ([2]; PH02 alone, 24 h, serial dilutions 28–0.2 μM): above 1.75 μM
PH02 concentration producing increased effects on HIV‐1 LTR transcription with PEP005 ([2]; in combination with 10 nM PEP005, 24 h): above 1.75 μM
